Reference: patent publication US20240158446A1, “CYCLIC COMPOUND HAVING SELECTIVE INHIBITORY ACTION ON KRAS OVER HRAS AND NRAS” (CHUGAI SEIYAKU KABUSHIKI KAISHA, priority 2021, published 2024)
Like-named read-outs stand apart in the source and are kept apart here.

Columns and labels:
[1] = biological target: GDP-bound KRAS wild-type protein (Homo sapiens, UniProt P01116); assay: Binding to KRAS by surface plasmon resonance (SPR), Single Cycle Kinetics; details: GDP-bound KRAS wild-type protein, read-out: KRAS KD
[2] = biological target: GDP-bound NRAS wild-type protein (Homo sapiens, UniProt P01111); assay: Binding to NRAS by surface plasmon resonance (SPR), Single Cycle Kinetics; details: for NRAS/KRAS (ratio of KD value for NRAS to KD value for KRAS): GDP-bound NRAS wild-type protein vs GDP-bound KRAS wild-type protein; for NRAS/KRAS (ratio of KD value with respect to GDP-bound NRAS wild-type protein to KD value with respect to KRAS): SPR KD ratio NRAS/KRAS, class symbols
[3] = biological target: GDP-bound HRAS wild-type protein (Homo sapiens, UniProt P01112); assay: Binding to HRAS by surface plasmon resonance (SPR), Single Cycle Kinetics; details: for HRAS/KRAS (ratio of KD value for HRAS to KD value for KRAS): GDP-bound HRAS wild-type protein vs GDP-bound KRAS wild-type protein; for HRAS/KRAS (ratio of KD value with respect to GDP-bound HRAS wild-type protein to KD value with respect to KRAS): SPR KD ratio HRAS/KRAS, class symbols
[4] = tested on: human lung cancer strain NCI-H441;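 further: cell proliferation inhibition after four days measured by CellTiter-Glo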
[5] = SPR, Single Cycle Kinetics, 1:1 binding model
[6] = SPR Single Cycle Kinetics, 1:1 binding model

Sequence of GDP-bound HRAS wild-type protein (P01112 whole entry): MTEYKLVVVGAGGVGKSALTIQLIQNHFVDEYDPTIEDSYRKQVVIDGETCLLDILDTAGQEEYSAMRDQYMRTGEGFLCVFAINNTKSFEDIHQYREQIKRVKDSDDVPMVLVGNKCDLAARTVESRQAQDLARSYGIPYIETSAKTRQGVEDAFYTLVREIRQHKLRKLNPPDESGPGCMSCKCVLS
Sequence of GDP-bound NRAS wild-type protein (P01111 whole entry): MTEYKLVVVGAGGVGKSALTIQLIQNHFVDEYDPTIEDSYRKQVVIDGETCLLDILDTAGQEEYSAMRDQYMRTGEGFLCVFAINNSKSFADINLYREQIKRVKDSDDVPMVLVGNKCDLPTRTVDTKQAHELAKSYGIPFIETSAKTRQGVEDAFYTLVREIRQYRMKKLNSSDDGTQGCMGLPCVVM
Sequence of GDP-bound KRAS wild-type protein (P01116 whole entry): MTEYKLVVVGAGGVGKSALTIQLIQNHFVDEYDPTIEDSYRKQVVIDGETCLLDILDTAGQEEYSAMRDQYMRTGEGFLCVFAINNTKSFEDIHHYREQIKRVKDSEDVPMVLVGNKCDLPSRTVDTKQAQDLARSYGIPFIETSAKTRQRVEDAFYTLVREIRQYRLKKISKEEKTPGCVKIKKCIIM

| SMILES | Kd [1, 5] [nM] | NRAS/KRAS (ratio of KD value for NRAS to KD value for KRAS) ([2]; SPR, KD ratio class) | HRAS/KRAS (ratio of KD value for HRAS to KD value for KRAS) ([3]; SPR, KD ratio class) | IC50 [4] [nM] | Kd ([1]; SPR, Single Cycle Kinetics) [nM] | NRAS/KRAS (ratio of KD value for NRAS to KD value for KRAS) ([2]; SPR) | HRAS/KRAS (ratio of KD value for HRAS to KD value for KRAS) ([3]; SPR) | further results |
| --- | --- | --- | --- | --- | --- | --- | --- | --- |
| CCCC[C@H]1C(=O)N[C@@H]([C@@H](C)CC)C(=O)N(C)CC(=O)N(C)[C@H]2C/C=C\CCN(C2=O)[C@@H](Cc2ccc(C(F)(F)F)cc2)C(=O)N(C)CC(=O)N[C@@H](CCc2cc(F)c(C(F)(F)F)c(F)c2)C(=O)N2C[C@H](OCC)C[C@H]2C(=O)NC2(CCC2)C(=O)N(C)[C@@H](C2CCCC2)C(=O)N(C)[C@H](C(=O)N(C)C)CC(=O)N1C [PP1392, (2S,8S,12R,14S,20S,23S,27S,30S,36S,38Z)-27-butyl-20-cyclopentyl-8-[2-[3,5-difluoro-4-(trifluoromethyl)phenyl]ethyl]-12-ethoxy-N,N,4,19,22,26,32,35-octamethyl-30-[(1S)-1-methylpropyl]-3,6,9,15,18,21,25,28,31,34,42-undecaoxo-2-[[4-(trifluoromethyl)phenyl]methyl]spiro[1,4,7,10,16,19,22,26,29,32,35-undecazatricyclo[34.5.1.0^10,14]dotetracont-38-ene-17,1′-cyclobutane]-23-carboxamide] | 0.047 | A (a compound having 10 or more and less than 20 is denoted as A) | A (a compound having 10 or more and less than 20 is denoted as A) | 1.4 | – | – | – | – |
| CCO[C@@H]1C[C@H]2C(=O)NC3(CCC3)C(=O)N(C)[C@@H](C3CCCC3)C(=O)N(C)[C@H](C(=O)N(C)C)CC(=O)N(C)[C@@H](CC3CCCC3)C(=O)N[C@@H]([C@@H](C)CC)C(=O)N(C)CC(=O)N(C)[C@H]3C/C=C\CCN(C3=O)[C@@H](Cc3ccc(C(F)(F)F)cc3)C(=O)N(C)CC(=O)N[C@@H](CCc3ccc(C(F)(F)F)c(OC)c3)C(=O)N2C1 [PP1248, (2S,8S,12R,14S,20S,23S,27S,30S,36S,38Z)-20-cyclopentyl-27-(cyclopentylmethyl)-12-ethoxy-8-[2-[3-methoxy-4-(trifluoromethyl)phenyl]ethyl]-N,N,4,19,22,26,32,35-octamethyl-30-[(1S)-1-methylpropyl]-3,6,9,15,18,21,25,28,31,34,42-undecaoxo-2-[[4-(trifluoromethyl)phenyl]methyl]spiro[1,4,7,10,16,19,22,26,29,32,35-undecazatricyclo[34.5.1.0^10,14]dotetracont-38-ene-17,1′-cyclobutane]-23-carboxamide] | 0.069 | A (a compound having 10 or more and less than 20 is denoted as A) | A (a compound having 10 or more and less than 20 is denoted as A) | 7.3 | – | – | – | – |
| CCC(CC)[C@H]1C(=O)N(C)[C@H](C(=O)N(C)C)CC(=O)N(C)[C@@H](COC)C(=O)N[C@@H]([C@@H](C)CC)C(=O)N(C)CC(=O)N(C)[C@H]2C/C=C\CCN(C2=O)[C@@H](Cc2ccc(C(F)(F)F)cc2)C(=O)N(C)CC(=O)N[C@@H](CCc2ccc(Cl)c(Cl)c2)C(=O)N2C[C@H](OC(C)C)C[C@H]2C(=O)NC2(CC(C)(C)C2)C(=O)N1C [PP2533] | – | – | – | 20 | – | – | – | Kd [1, 6]: 0.49 nM; NRAS/KRAS (ratio of KD value with respect to GDP-bound NRAS wild-type protein to KD value with respect to KRAS) [2]: AA (a compound having 20 or more is denoted as AA); HRAS/KRAS (ratio of KD value with respect to GDP-bound HRAS wild-type protein to KD value with respect to KRAS) [3]: A (a compound having 10 or more and less than 20 is denoted as A) |
| CCC(CC)[C@H]1C(=O)N(C)[C@H](C(=O)N(C)C)CC(=O)N(C)[C@@H](COC)C(=O)N[C@@H]([C@@H](C)CC)C(=O)N2CCC[C@H]2C(=O)N(C)[C@H]2C/C=C\CCN(C2=O)[C@@H](Cc2ccc(C(F)(F)F)cc2)C(=O)N(C)CC(=O)N[C@@H](CCc2ccc(Cl)c(Cl)c2)C(=O)N2C[C@H](OC3CCC3)C[C@H]2C(=O)NC2(CC(C)(C)C2)C(=O)N1C [PP2645] | – | – | – | 86.7 | – | – | – | Kd [1, 6]: 1.1 nM; NRAS/KRAS (ratio of KD value with respect to GDP-bound NRAS wild-type protein to KD value with respect to KRAS) [2]: AA (a compound having 20 or more is denoted as AA); HRAS/KRAS (ratio of KD value with respect to GDP-bound HRAS wild-type protein to KD value with respect to KRAS) [3]: A (a compound having 10 or more and less than 20 is denoted as A) |
| CC[C@H](C)[C@@H]1NC(=O)[C@@H]2CCCCc3ccc(cc3)C[C@@H](C(=O)N(C)CC(=O)N[C@@H](CCc3ccc(C(F)(F)F)c(OC)c3)C(=O)N3C[C@H](OC4CCCC4)C[C@H]3C(=O)NC3(CC(C)(C)C3)C(=O)N(C)[C@@H](C3CCCC3)C(=O)N(C)[C@H](C(=O)N(C)C)CC(=O)N2C)N2CC/C=C\C[C@@H](C2=O)N(C)C(=O)CN(C)C1=O [PP3080] | – | – | – | – | 0.037 | A (a compound having 10 or more and less than 20 is denoted as A) | B (a compound having 3 or more and less than 10 is denoted as B) | ratio of the KD value with respect to GDP-bound NRAS wild-type protein to the KD value with respect to KRAS ([2]; SPR, KD(NRAS)/KD(KRAS)): A (a compound having 10 or more and less than 20 is denoted as A); ratio of the KD value with respect to GDP-bound HRAS wild-type protein to the KD value with respect to KRAS ([3]; SPR, KD(HRAS)/KD(KRAS)): B (a compound having 3 or more and less than 10 is denoted as B); IC50 ([4]; read-out: NCI-H441 cell proliferation inhibitory activity, 50% proliferation inhibitory concentration (IC50 value), NCI-H441, four days, CellTiter-Glo): 4.3 nM |
| CCO[C@@H]1C[C@H]2C(=O)NC3(CCC3)C(=O)N(C)[C@@H](C3CCCC3)C(=O)N(C)[C@H](C(=O)N(C)C)CC(=O)N(C)[C@@H](Cc3ccccc3F)C(=O)N[C@@H]([C@@H](C)CC)C(=O)N(C)CC(=O)N(C)[C@H]3CCCCCN(C3=O)[C@@H](Cc3ccc(C(F)(F)F)cc3)C(=O)N(C)CC(=O)N[C@@H](CCc3cc(F)c(C(F)(F)F)c(F)c3)C(=O)N2C1 [PP0934] | – | – | – | 51.8 | 0.72 | B (a compound having 3 or more and less than 10 is denoted as B) | B (a compound having 3 or more and less than 10 is denoted as B) | – |
| CCO[C@@H]1C[C@H]2C(=O)NC3(CCC3)C(=O)N(C)[C@@H](C3CCCC3)C(=O)N(C)[C@H](C(=O)N3CCOCC3)CC(=O)N(C)[C@@H](Cc3cccs3)C(=O)N[C@@H]([C@@H](C)CC)C(=O)N(C)CC(=O)N(C)[C@H]3CCCCCN(C3=O)[C@@H](Cc3ccc(F)cc3)C(=O)N(C)CC(=O)N[C@@H](CCc3cc(F)c(C(F)(F)F)c(F)c3)C(=O)N2C1 [PP1183] | – | – | – | 27.8 | 0.26 | B (a compound having 3 or more and less than 10 is denoted as B) | B (a compound having 3 or more and less than 10 is denoted as B) | – |
| CCO[C@@H]1C[C@H]2C(=O)NC3(CCC3)C(=O)N(C)[C@@H](C3CCCC3)C(=O)N(C)[C@H](C(=O)N(C)C)CC(=O)N(C)[C@@H](CC(C)C)C(=O)N[C@@H]([C@@H](C)CC)C(=O)N(C)CC(=O)N(C)[C@H]3C/C=C\CCN(C3=O)[C@@H](Cc3ccc(F)cc3)C(=O)N(C)CC(=O)N[C@@H](CCc3cc(F)c(Cl)c(F)c3)C(=O)N2C1 [PP1483] | 0.51 | A (a compound having 10 or more and less than 20 is denoted as A) | B (a compound having 3 or more and less than 10 is denoted as B) | 90.3 | – | – | – | – |
